How the values were obtained:
[1] = Oral pharmacokinetics (plasma, brain, CSF); format: in vivo, Sprague Dawley rats; settings: rat, per os, 10 mg/kg
Method: In another experiment, Sprague Dawley rats were dosed per os using a normal saline formulation containing 10 mg/kg of the compounds identified in the table below. Plasma, brain, and CSF samples were analyzed at various time points over a 24 hour period. The table below summarizes the results of the oral pharmacokinetics.

IV pharmacokinetics = assay: IV pharmacokinetics; design: species or system Sprague Dawley rats; settings: Sprague Dawley, in vivo, rat, 2 mg/kg, normal saline
Method: Sprague Dawley rats were dosed intravenously using a normal saline formulation containing 2 mg/kg of the compounds identified in the below table. The table below summarizes the results of the IV pharmacokinetics.

[2] = target: T1, NMDAR2D expressing HEK cell membranes (Homo sapiens, UniProt O15399); assay: NMDAR agonist assay, [3H]MK-801 binding, NMDAR2D; format: biochemical; settings: 50 μM glutamate
T1 construct: expressed in transfected cells; host or cells: HEK cells (membrane extract)
T1 sequence (O15399 28-1336, other chains not shown): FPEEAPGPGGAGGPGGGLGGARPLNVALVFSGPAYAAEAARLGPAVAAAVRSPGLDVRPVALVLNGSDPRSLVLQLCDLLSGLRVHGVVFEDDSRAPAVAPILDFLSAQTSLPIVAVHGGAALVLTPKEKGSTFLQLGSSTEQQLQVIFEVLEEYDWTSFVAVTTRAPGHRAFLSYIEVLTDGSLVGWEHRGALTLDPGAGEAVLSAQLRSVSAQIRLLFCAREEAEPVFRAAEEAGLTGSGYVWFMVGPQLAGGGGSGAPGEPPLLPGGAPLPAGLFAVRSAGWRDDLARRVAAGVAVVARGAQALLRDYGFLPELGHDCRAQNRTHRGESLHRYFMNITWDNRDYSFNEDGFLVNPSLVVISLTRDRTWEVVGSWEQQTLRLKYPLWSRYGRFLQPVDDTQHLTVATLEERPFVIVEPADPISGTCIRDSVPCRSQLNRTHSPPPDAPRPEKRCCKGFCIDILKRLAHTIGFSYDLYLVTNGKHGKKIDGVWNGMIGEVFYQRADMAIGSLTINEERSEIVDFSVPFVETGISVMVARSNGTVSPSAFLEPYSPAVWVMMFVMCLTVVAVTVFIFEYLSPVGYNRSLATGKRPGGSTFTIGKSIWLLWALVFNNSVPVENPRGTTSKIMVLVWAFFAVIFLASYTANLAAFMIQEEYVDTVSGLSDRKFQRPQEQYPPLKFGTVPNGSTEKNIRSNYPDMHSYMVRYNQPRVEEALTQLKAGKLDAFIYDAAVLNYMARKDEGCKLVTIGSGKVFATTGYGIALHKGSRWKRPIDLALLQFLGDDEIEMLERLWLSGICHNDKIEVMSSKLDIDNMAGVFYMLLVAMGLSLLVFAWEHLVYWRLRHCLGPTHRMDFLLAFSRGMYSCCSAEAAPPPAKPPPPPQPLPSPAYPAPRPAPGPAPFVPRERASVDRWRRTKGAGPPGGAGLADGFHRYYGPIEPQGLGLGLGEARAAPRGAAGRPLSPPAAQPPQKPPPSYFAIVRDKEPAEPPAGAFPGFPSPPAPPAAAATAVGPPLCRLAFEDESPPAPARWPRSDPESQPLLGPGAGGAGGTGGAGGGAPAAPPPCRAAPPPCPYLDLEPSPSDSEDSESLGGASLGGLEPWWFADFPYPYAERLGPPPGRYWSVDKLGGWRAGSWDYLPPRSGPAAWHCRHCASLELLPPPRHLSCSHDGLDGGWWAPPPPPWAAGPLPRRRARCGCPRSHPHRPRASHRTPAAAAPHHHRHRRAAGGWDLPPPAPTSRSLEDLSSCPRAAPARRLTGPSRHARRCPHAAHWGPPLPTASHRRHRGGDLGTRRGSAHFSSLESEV
Method: (§1) Assays were conducted as described by Moskal et al., “GLYX-13: a monoclonal antibody-derived peptide that acts as an N-methyl-D-aspartate receptor modulator,” Neuropharmacology, 49, 1077-87, 2005. These studies were designed to determine if the test compounds act to facilitate NMDAR activation in NMDAR2A, NMDAR2B, NMDAR2C or NMDAR2D expressing HEK cell membranes as measured by increases in [^3H]MK-801 binding.
(§2) In the assay, 300 μg of NMDAR expressing HEK cell membrane extract protein was preincubated for 15 minutes at 25° C. in the presence of saturating concentrations of glutamate (50 μM) and varying concentrations of test compound (1×10^−15 M-1×10^−7 M), or 1 mM glycine. Following the addition of 0.3 μCi of [^3H]MK-801 (22.5 Ci/mmol), reactions were again incubated for 15 minutes at 25° C. (nonequilibrium conditions). Bound and free [^3H]MK-801 were separated via rapid filtration using a Brandel apparatus.
(§3) In analyzing the data, the DPM (disintegrations per minute) of [^3H]MK-801 remaining on the filter were measured for each concentration of test compound or for 1 mM glycine. The DPM values for each concentration of a ligand (N=2) were averaged. The baseline value was determined from the best fit curve of the DPM values modeled using the GraphPad program and the log(agonist) vs. response(three parameters) algorithm was then subtracted from all points in the dataset. The % maximal [^3H]MK-801 binding was then calculated relative to that of 1 mM glycine: all baseline subtracted DPM values were divided by the average value for 1 mM glycine. The EC50 and % maximal activity were then obtained from the best fit curve of the % maximal [^3H]MK-801 binding data modelled using the GraphPad program and the log(agonist) vs. response(three parameters) algorithm.
(§4) The tables below summarize the results for the wild type NMDAR agonists NMDAR2A, NMDAR2B, NMDAR2C, and NMDAR2D, and whether the compound is not an agonist (−), is an agonist (+), or is a strong agonist (++), where column A is based on the % maximal [^3H]MK-801 binding relative to 1 mM glycine (−=0; <100%=+; and >100%=++); and column B is based on log EC50 values (0=−; ≥1×10^−9 M (e.g., −8)=+; and <1×10^−9 M (e.g., −10)=++).

[3] = target: T2, NMDAR2D expressing HEK cell membranes (Homo sapiens, UniProt O15399+Q05586); assay: NMDAR agonist assay, [3H]MK-801 binding, NMDAR2D; format: biochemical; settings: 50 μM glutamate; read-out: NMDAR2D B: log EC50 (converted)
T2 construct: expressed in transfected cells; host or cells: HEK cells (membrane extract)
T2 sequence (O15399 28-1336, other chains not shown): as above
Method: as §1, §2, §3, §4

rats = assay: Positive emotional learning (PEL) test, 50-kHz ultrasonic vocalizations; format: in vivo, rat; settings: dose range 0.001-1 mg/kg, orally; tested one hour after administration
Method: Experiments were conducted as described in Burgdorf et al., “The effect of selective breeding for differential rates of 50-kHz ultrasonic vocalizations on emotional behavior in rats,” Devel. Psychobiol., 51:34-46 (2009). Rat 50-kHz ultrasonic vocalization (hedonic USVs) is a validated model for the study of positive affective state and is best elicited by rough-and-tumble play.
The PEL assay measures the acquisition of positive (hedonic) 50-kHz ultrasonic vocalizations (USVs) to a social stimulus, heterospecific rough and tumble play stimulation. Heterospecific rough-and-tumble play stimulation was administered by the experimenter's right hand. […] High frequency ultrasonic vocalizations (USVs) were recorded and analyzed by sonogram with Avasoft SASlab Pro (Germany) as previously described by Burgdorf et al., “Positive emotional learning is regulated in the medial prefrontal cortex by GluN2B-containing NMDA receptors,” Neuroscience, 192:515-523 (2011). Frequency modulated 50-kHz USVs that occurred during each of the no-stimulation periods were quantified to measure PEL. […] Positive emotional learning was measured during the conditioned stimulus (CS) trials preceding the tickle unconditioned stimulus (UCS) trials. […]

[4] = target: T3, NMDAR2A expressing HEK cell membranes (Homo sapiens, UniProt Q05586+Q12879); assay: NMDAR agonist assay, [3H]MK-801 binding, NMDAR2A; format: biochemical; design: key to NMDAR2A B: log EC50: 0=−; ≥1×10^−9 M (e.g., −8)=+; <1×10^−9 M (e.g., −10)=++; settings: 0.25 h, 50 μM glutamate; read-out: NMDAR2A A: % maximal [3H]MK-801 binding relative to 1 mM glycine
T3 construct: expressed in transfected cells; host or cells: HEK cells (membrane extract)
T3 sequence (Q12879 23-1464, other chains not shown): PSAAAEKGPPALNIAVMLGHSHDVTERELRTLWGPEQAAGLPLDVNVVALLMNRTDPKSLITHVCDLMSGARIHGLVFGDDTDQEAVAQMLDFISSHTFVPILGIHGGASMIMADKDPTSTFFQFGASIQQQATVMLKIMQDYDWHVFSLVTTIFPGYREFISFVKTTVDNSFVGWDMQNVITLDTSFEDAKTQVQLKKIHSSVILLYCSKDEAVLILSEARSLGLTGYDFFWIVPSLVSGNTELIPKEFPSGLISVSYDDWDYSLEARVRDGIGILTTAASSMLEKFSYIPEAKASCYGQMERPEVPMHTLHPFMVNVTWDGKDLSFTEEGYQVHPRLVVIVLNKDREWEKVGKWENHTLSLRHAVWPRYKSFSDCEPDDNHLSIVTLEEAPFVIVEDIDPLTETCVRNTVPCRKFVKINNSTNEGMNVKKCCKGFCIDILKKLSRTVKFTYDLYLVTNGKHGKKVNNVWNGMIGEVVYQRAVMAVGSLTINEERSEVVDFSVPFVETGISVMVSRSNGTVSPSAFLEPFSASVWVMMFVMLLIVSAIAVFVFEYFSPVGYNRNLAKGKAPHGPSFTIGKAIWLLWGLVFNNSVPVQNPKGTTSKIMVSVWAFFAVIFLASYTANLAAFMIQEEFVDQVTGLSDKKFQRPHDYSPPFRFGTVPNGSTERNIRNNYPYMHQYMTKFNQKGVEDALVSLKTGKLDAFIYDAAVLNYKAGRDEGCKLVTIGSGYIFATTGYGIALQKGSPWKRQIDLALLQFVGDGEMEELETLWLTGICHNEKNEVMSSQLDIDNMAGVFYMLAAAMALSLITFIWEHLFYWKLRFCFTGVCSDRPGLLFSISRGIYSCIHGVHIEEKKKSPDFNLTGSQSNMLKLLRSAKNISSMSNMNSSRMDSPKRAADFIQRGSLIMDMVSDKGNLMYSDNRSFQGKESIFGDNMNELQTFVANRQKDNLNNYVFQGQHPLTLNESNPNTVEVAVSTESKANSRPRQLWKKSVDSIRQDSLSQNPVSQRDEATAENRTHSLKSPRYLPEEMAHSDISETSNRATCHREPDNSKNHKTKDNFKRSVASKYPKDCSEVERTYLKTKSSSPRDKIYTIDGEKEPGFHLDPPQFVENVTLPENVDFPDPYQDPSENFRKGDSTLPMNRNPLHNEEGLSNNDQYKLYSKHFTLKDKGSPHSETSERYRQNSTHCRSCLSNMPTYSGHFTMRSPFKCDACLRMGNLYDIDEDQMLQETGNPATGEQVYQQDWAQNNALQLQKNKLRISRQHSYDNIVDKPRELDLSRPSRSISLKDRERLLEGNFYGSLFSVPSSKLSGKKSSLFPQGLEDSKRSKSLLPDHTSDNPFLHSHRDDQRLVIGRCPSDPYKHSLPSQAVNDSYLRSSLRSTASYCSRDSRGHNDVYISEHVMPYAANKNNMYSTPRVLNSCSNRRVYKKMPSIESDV
Summary of the method: (§5)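 HEK membranes (300 μg protein) expressing each subtype were preincubated 15 min at 25 °C with 50 μM glutamate and compound (1×10^−15–1×10^−7 M) or 1 mM glycine. [3H]MK-801 (0.3 μCi) binding then ran 15 min under nonequilibrium conditions, followed by filtration. EC50 and % maximal binding against 1 mM glycine came from three-parameter fits of baseline-subtracted DPM (N=2).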

[5] = target: T4, NMDAR2A expressing HEK cell membranes (Homo sapiens, UniProt Q12879); assay: NMDAR agonist assay, [3H]MK-801 binding, NMDAR2A; format: biochemical; design: key to NMDAR2A B: log EC50: 0=−; ≥1×10^−9 M (e.g., −8)=+; <1×10^−9 M (e.g., −10)=++; settings: 50 μM glutamate
T4 construct: expressed in transfected cells; host or cells: HEK cells (membrane extract)
T4 sequence (Q12879 23-1464, other chains not shown): as above
Summary of the method: as §5

- AUC(0-t) ([1]; Sprague Dawley, plasma, po): 17300 ng·h/mL
- bioavailability ([1]; Sprague Dawley, plasma, po): 100%
- Tmax ([1]; Sprague Dawley, plasma, po, normal saline): 15 min
- Cmax ([1]; Sprague Dawley, po, plasma): 11300 ng/mL
- CSF Cmax ([1]; CSF): 1476.3 ng/mL
- Brain Cmax ([1]; brain): 1107.2 ng/mL
- AUC(0-t) (IV pharmacokinetics): 3370 ng·h/mL
- C0 (IV pharmacokinetics): 1990 ng/mL
- clearance (IV pharmacokinetics): 9.82 mL/min/kg
- half-life (IV pharmacokinetics): 75 min
- Vd (IV pharmacokinetics; read-out: Vss): 0.54 L/kg
- NMDAR2D A: % maximal [3H]MK-801 binding relative to 1 mM glycine [2]: + (<100%=+)
- EC50 [3]: < 1 nM
- Emax [4]: 0%
- NMDAR2A B: log EC50 [5]: −
SMILES: COc1ccc(CN2C[C@@]3(CCNC(=O)C3)C2=O)cc1 [Compound AA-2, 2-(4-methoxybenzyl)-2,7-diazaspiro[3.5]nonane-1,6-dione]
- maximum effect, mean number of 50 kHz USVs per 15 seconds (rats): 10.1-20 50 kHz USVs per 15 seconds
